Data published in patent publication US20070219186A1, “Pyrazolo[1,5-A]pyrimidine derivatives and methods of use thereof” (priority 2006, published 2007).
Read-outs that look alike come from different tables or passages of the source.

Target: T1, human B-Raf (Homo sapiens, UniProt P15056)
T1 construct: Flag; GST; made in house; host or cells: Sf9 insect cells (B-Raf); E. coli (MEK1-GST)
Experiment: B-Raf Kinase to MEK1 ELISA
Type: biochemical
Conditions: for inhibition at 10 µM: read-out: % Inhib./10 uM
Procedure, shortened: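 Read-out is a DELFIA europium signal from phospho-MEK1 (Ser217/221) antibody after capture of GST-MEK1 (50 nM final) on anti-GST plates. Phosphorylation comes from Sf9-expressed Flag/GST human B-Raf (~20 ng) with ATP/MgCl2, 60 min RT, pH 7.2 MOPS.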

[1] = median, cpd concentrations from 10 μM to 30 nM in half log dilutions, read-out: Median IC50

T1 sequence (P15056 whole entry): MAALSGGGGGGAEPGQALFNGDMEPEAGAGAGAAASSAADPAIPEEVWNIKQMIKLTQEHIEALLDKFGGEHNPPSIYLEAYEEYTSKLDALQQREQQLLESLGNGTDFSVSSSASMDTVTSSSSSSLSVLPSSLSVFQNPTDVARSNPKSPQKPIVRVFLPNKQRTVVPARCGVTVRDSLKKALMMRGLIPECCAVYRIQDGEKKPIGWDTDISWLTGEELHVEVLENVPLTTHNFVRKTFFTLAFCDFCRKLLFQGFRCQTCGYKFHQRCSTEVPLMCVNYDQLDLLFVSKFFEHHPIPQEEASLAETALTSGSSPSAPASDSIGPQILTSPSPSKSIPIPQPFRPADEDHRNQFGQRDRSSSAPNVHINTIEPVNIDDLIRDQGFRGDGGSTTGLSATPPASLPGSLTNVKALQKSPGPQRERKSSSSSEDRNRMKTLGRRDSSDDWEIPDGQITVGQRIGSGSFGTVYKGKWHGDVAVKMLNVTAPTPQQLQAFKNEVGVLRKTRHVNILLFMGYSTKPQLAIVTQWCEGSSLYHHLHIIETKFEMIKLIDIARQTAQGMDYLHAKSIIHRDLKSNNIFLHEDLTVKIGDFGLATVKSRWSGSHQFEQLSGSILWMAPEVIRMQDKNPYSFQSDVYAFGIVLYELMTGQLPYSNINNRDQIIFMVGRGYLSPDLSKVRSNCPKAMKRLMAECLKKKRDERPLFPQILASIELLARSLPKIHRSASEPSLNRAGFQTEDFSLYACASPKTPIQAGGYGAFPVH

Row | SMILES | IC50 [1] [nM] | inhibition at 10 µM (single point assay, 10 uM) [%] | % Inhib./10 uM (single point assay, 10 uM) [%] | inhibition at 10 µM [%] | IC50 [nM]
1 | CN(C)CC(=O)Nc1ccc(-c2cnn3c(-c4cccc(NC(=O)c5cccc(C(F)(F)F)c5)c4)ccnc23)cc1 [Example 230, N-[3-(3-{4-[(N,N-dimethylglycyl)amino]phenyl}pyrazolo[1,5-a]pyrimidin-7-yl)phenyl]-3-(trifluoromethyl)benzamide] | 49 | 93 |  |  | 
2 | O=C(Nc1cccc(-c2ccnc3cc(-c4ccncc4)nn23)c1)Nc1ccc(Cl)c(C(F)(F)F)c1 [Example 133, N-[4-chloro-3-(trifluoromethyl)phenyl]-N′-[3-(2-pyridin-4-ylpyrazolo[1,5-a]pyrimidin-7-yl)phenyl]urea] | 30 |  | 98 |  | 
3 | CCOC(=O)c1cnn2c(-c3cccc(NC(=O)c4cc(C(F)(F)F)cc(Cl)c4F)c3)ccnc12 [Example 28, ethyl 7-(3-{[3-chloro-2-fluoro-5-(trifluoromethyl)benzoyl]amino}phenyl)pyrazolo[1,5-a]pyrimidine-3-carboxylate] | > 10000 |  |  | 19 | 
4 | CCOC(=O)c1cnn2c(-c3cccc(NC(=O)Nc4ccc(C#N)cc4)c3)ccnc12 [Example 38, ethyl 7-[3-({[(4-cyanophenyl)amino]carbonyl}amino)phenyl]pyrazolo[1,5-a]pyrimidine-3-carboxylate] | > 10000 |  |  | 20 | 
5 | O=C(Nc1cccc(-c2ccnc3c(C(=O)O)cnn23)c1)c1cccc(C(F)(F)F)c1 [Example 32, 7-(3-{[3-(trifluoromethyl)benzoyl]amino}phenyl)pyrazolo[1,5-a]pyrimidine-3-carboxylic acid] | > 10000 |  |  | 29 | 
6 | O=C(Nc1cccc(-c2ccnc3c(-c4ccc(Cl)cc4)cnn23)c1)c1cccc(C(F)(F)F)c1 [Example 158, N-{3-[3-(4-chlorophenyl)pyrazolo[1,5-a]pyrimidin-7-yl]phenyl}-3-(trifluoromethyl)benzamide] | > 10000 |  |  | 39 | 
7 | CCCNC(=O)c1cnn2c(-c3cccc(NC(=O)c4cccc(C(F)(F)F)c4)c3)ccnc12 [Example 46, N-propyl-7-(3-{[3-(trifluoromethyl)benzoyl]amino}phenyl)pyrazolo[1,5-a]pyrimidine-3-carboxamide] |  |  |  | 54 | 
8 | COc1ccc(-c2cc3nccc(-c4cccc(NC(=O)c5cccc(C(F)(F)F)c5)c4)n3n2)cc1 [Example 136, N-{3-[2-(4-methoxyphenyl)pyrazolo[1,5-a]pyrimidin-7-yl]phenyl}-3-(trifluoromethyl)benzamide] |  |  |  | 35 | > 10000
9 | CCOC(=O)c1cnn2c(-c3cccc(NC(=O)CC(C)CC(C)(C)C)c3)ccnc12 (centres unmarked) [Example 226, ethyl7-{3-[(3,5,5-trimethylhexanoyl)amino]phenyl}pyrazolo[1,5-a]pyrimidine-3-carboxylate] | > 10000 |  |  | 43 | 
10 | CN(C)C1CCN(c2cc3nccc(-c4cccc(NC(=O)c5cccc(C(F)(F)F)c5)c4)n3n2)C1 (centres unmarked) [Example 209, N-(3-{2-[3-(dimethylamino)pyrrolidin-1-yl]pyrazolo[1,5-a]pyrimidin-7-yl}phenyl)-3-(trifluoromethyl)benzamide] | > 10000 |  |  | 24 | 
11 | CCOC(=O)c1cnn2c(-c3cccc(NC(=O)c4cnccn4)c3)ccnc12 [Example 214, ethyl7-{3-[(pyrazin-2-ylcarbonyl)amino]phenyl}pyrazolo[1,5-a]pyrimidine-3-carboxylate] | > 10000 |  |  | 8 | 
12 | CCNC(=O)c1cnn2c(-c3cccc(NC(=O)c4cccc(C(F)(F)F)c4)c3)ccnc12 [Example 51, N-ethyl-7-(3-{[3-(trifluoromethyl)benzoyl]amino}phenyl)pyrazolo[1,5-a]pyrimidine-3-carboxamide] |  |  |  | 50 | 
13 | CC(C)(C)CC(=O)Nc1cccc(-c2ccnc3cc(-c4ccncc4)nn23)c1 [Example 240, 3,3-dimethyl-N-[3-(2-pyridin-4-ylpyrazolo[1,5-a]pyrimidin-7-yl)phenyl]butanamide] | > 10000 |  |  | 10 | 
14 | Cc1ccc(C(=O)Nc2cccc(-c3ccnc4c(-c5cccnc5)cnn34)c2)cc1C(F)(F)F [Example 169, 4-methyl-N-[3-(3-pyridin-3-ylpyrazolo[1,5-a]pyrimidin-7-yl)phenyl]-3-(trifluoromethyl)benzamide] |  |  |  | 96 | 70

More lines, now with the values ahead:

Row | IC50 [1] [nM] | inhibition at 10 µM (single point assay, 10 uM) [%] | % Inhib./10 uM (single point assay, 10 uM) [%] | inhibition at 10 µM [%] | IC50 [nM] | SMILES
15 | > 10000 |  |  | 33 |  | O=C(Nc1cccc(-c2ccnc3c(-c4cccc(C(F)(F)F)c4)cnn23)c1)c1cccc(C(F)(F)F)c1 [Example 291, 3-(trifluoromethyl)-N-(3-{3-[3-(trifluoromethyl)phenyl]pyrazolo[1,5-a]pyrimidin-7-yl}phenyl)benzamide]
16 |  |  |  | 96 | 111 | Nc1ccc(-c2cnn3c(-c4cccc(NC(=O)c5cccc(C(F)(F)F)c5)c4)ccnc23)cn1 [Example 278, N-{3-[3-(6-aminopyridin-3-yl)pyrazolo[1,5-a]pyrimidin-7-yl]phenyl}-3-(trifluoromethyl)benzamide]
17 |  |  |  | 69 | 266 | CC(=O)c1ccccc1-c1cnn2c(-c3cccc(NC(=O)c4cccc(C(F)(F)F)c4)c3)ccnc12 [Example 298, N-{3-[3-(2-acetylphenyl)pyrazolo[1,5-a]pyrimidin-7-yl]phenyl}-3-(trifluoromethyl)benzamide]
18 | 288 |  |  | 80 |  | CC(O)c1ccccc1-c1cnn2c(-c3cccc(NC(=O)c4cccc(C(F)(F)F)c4)c3)ccnc12 (centres unmarked) [Example 303, N-(3-{3-[2-(1-hydroxyethyl)phenyl]pyrazolo[1,5-a]pyrimidin-7-yl}phenyl)-3-(trifluoromethyl)benzamide]
19 | > 10000 |  |  | 35 |  | CN(C)S(=O)(=O)c1ccc(-c2cnn3c(-c4cccc(NC(=O)c5cccc(C(F)(F)F)c5)c4)ccnc23)cc1 [Example 288, N-[3-(3-{4-[(dimethylamino)sulfonyl]phenyl}pyrazolo[1,5-a]pyrimidin-7-yl)phenyl]-3-(trifluoromethyl)benzamide]
20 | 95.8 |  |  | 97 |  | O=C(Nc1cccc(-c2ccnc3cc(-c4ccnc(NCCN5CCCCC5)c4)nn23)c1)c1cccc(C(F)(F)F)c1 [Example 264, N-[3-(2-{2-[(2-piperidin-1-ylethyl)amino]pyridin-4-yl}pyrazolo[1,5-a]pyrimidin-7-yl)phenyl]-3-(trifluoromethyl)benzamide]
21 | > 10000 |  |  | 18 |  | CCOC(=O)c1cnn2c(-c3cccc(NC(=O)Nc4ccc5c(c4)OCO5)c3)ccnc12 [Example 245, ethyl7-(3-{[(1,3-benzodioxol-5-ylamino)carbonyl]amino}phenyl)pyrazolo[1,5-a]pyrimidine-3-carboxylate]
22 | 74.5 |  |  | 97 |  | CN(C)CCCNc1cc(-c2cc3nccc(-c4cccc(NC(=O)c5cccc(C(F)(F)F)c5)c4)n3n2)ccn1 [Example 257, N-{3-[2-(2-{[3-(dimethylamino)propyl]amino}pyridin-4-yl)pyrazolo[1,5-a]pyrimidin-7-yl]phenyl}-3-(trifluoromethyl)benzamide]
23 | 91.4 |  |  | 99 |  | O=C(Nc1cccc(-c2ccnc3cc(-c4ccnc(NCCCN5CCCCC5)c4)nn23)c1)c1cccc(C(F)(F)F)c1 [Example 259, N-[3-(2-{2-[(3-piperidin-1-ylpropyl)amino]pyridin-4-yl}pyrazolo[1,5-a]pyrimidin-7-yl)phenyl]-3-(trifluoromethyl)benzamide]
